Measurements taken from ChEMBL document CHEMBL4177661, “Improvement in aqueous solubility achieved via small molecular changes” (Bioorg Med Chem Lett, 2017).
Values after ≈ are worked out from the molar mass of the structure shown. Each block holds one compound with its values, some of them ahead of it.

Legend:
physchem [1] = settings: water
Description: Solubility of the compound in water at 35 degC

[2] = Solubility of the compound at pH 7.4; format: physicochemical; settings: buffer
[3] = Dissociation constant, pKa of the compound; format: physicochemical
[4] = Solubility of the compound; format: physicochemical
physchem [5] = settings: octanol/water
Description: Lipophilicity, log P of the compound

Structure (SMILES): CC(C)CCC[C@@H](C)[C@H]1CC[C@H]2[C@@H]3CC[C@H]4C[C@@H](O)CC[C@]4(C)[C@H]3CC[C@]12C
solubility (physchem [1]): 0.009 µg/mL (≈ 0.0232 µM)

Structure (SMILES): O=C(Nc1ccc(-c2nc(-c3ccccc3)no2)cc1)c1ccccc1
solubility [2]: 6.12 µg/mL (≈ 17.9 µM)

Structure (SMILES): O=C(Nc1ccc(-c2nnc(-c3ccccc3)o2)cc1)c1ccc(F)cc1
solubility [2]: 5 µg/mL (≈ 13.9 µM)

Structure (SMILES): c1cnccn1 [PYRAZINE]
pKa [3]: 0.7

Structure (SMILES): O=C(Nc1ccc(-c2nnc(-c3ccccc3)o2)cc1)c1ccccc1
solubility [2]: 5.89 µg/mL (≈ 17.3 µM)

Structure (SMILES): Oc1cccc2nccnc12
solubility [4]: 6600 µg/mL (≈ 45200 µM)

Structure (SMILES): C1CCCCCCC1 [CYCLOOCTANE]
solubility [4]: 7 µg/mL (≈ 62.4 µM)
logP (physchem [5]): 4.07

Structure (SMILES): Oc1cccc2cncnc12
solubility [4]: 1300 µg/mL (≈ 8900 µM)

Structure (SMILES): C=CCCCCCC
solubility [4]: 3 µg/mL (≈ 26.7 µM)

Structure (SMILES): c1ccc2c(c1)CCNC2 [1,2,3,4-TETRAHYDROISOQUINOLINE]
logP (physchem [5]): 1.71

Now from value to compound:

solubility [2]: 5.23 µg/mL (≈ 14.6 µM)
Structure (SMILES): O=C(Nc1ccc(-c2nc(-c3ccccc3)no2)cc1)c1ccc(F)cc1

solubility [4]: 1 µg/mL (≈ 8.75 µM)
logP (physchem [5]): 4.93
Structure (SMILES): CCCCCCCC [OCTANE]

logP (physchem [5]): -0.44
Structure (SMILES): c1cncnc1 [PYRIMIDINE]

solubility [4]: 600 µg/mL (≈ 4110 µM)
Structure (SMILES): Oc1cccc2ccnnc12

solubility [4]: 5660 µg/mL (≈ 43800 µM)
Structure (SMILES): c1ccc2cnccc2c1 [ISOQUINOLINE]
